Assays:
[1] = Ex vivo biodistribution study; assay type: in vivo, mice; conditions: mean ± SD, n = 3
Procedure: Each mouse (8 weeks old, 37.9 ± 1.0 g) was injected with a bolus of [^11C]PK68 (2.7 MBq, 0.1 mL) via its tail vein. Three mice were sacrificed by cervical dislocation at each experimental time-point (1, 5, 15, 30, and 60 min) after the injection. The blood (heart contents), heart wall, lung, liver, pancreas, spleen, kidneys, adrenals, stomach (including contents), small intestine (including contents), large intestines (including contents), testes, muscles, and whole brain were removed quickly and weighed. The radioactivity in these tissues was measured with an autogamma scintillation counter (2480 Wizard^2) and expressed as %ID/g. All radioactivity measurements were corrected for decay.

[2] = Lipophilicity (logD), n-octanol/PBS pH 7.4 shake-flask; assay type: physicochemical; conditions: n-octanol/PBS pH 7.4, room temperature
Procedure: An aliquot of 0.65 mL PBS and 0.65 mL n-octanol was removed and weighed, and its radioactivity was determined using an autogamma counter (2480 Wizard^2, Perkin-Elmer, Waltham, MA, USA). Each sample from the remaining organic layer was removed and repartitioned until a consistent logD value was obtained. The logD value was calculated by comparing the ratio of counts per minute (cpm)/g of n-octanol to that of PBS, and is expressed as logD = log[cpm/g (n-octanol)/cpm/g (PBS)]. All measurements were performed in triplicate.

radioactivity in adrenals ([1]; 1 min after injection): 6.2 ± 2.7 %ID/g
radioactivity in blood ([1]; 1 min after injection): 2.4 ± 0.3 %ID/g
radioactivity in brain ([1]; 1 min after injection): 0.6 ± 0.0 %ID/g
radioactivity in heart ([1]; 1 min after injection): 7.6 ± 0.3 %ID/g
radioactivity in large intestine (including contents) ([1]; 1 min after injection): 0.7 ± 0.1 %ID/g
radioactivity in liver ([1]; 1 min after injection): 8.0 ± 0.8 %ID/g
radioactivity in lung ([1]; 1 min after injection): 5.2 ± 0.2 %ID/g
radioactivity in muscle ([1]; 1 min after injection): 1.9 ± 0.3 %ID/g
radioactivity in pancreas ([1]; 1 min after injection): 3.4 ± 0.2 %ID/g
radioactivity in small intestine (including contents) ([1]; 1 min after injection): 1.8 ± 0.1 %ID/g
radioactivity in spleen ([1]; 1 min after injection): 1.5 ± 0.2 %ID/g
radioactivity in stomach (including contents) ([1]; 1 min after injection): 1.2 ± 0.2 %ID/g
radioactivity in testis ([1]; 1 min after injection): 0.3 ± 0.1 %ID/g
radioactivity in adrenals ([1]; 5 min after injection): 4.0 ± 0.5 %ID/g
radioactivity in blood ([1]; 5 min after injection): 1.3 ± 0.2 %ID/g
radioactivity in brain ([1]; 5 min after injection): 0.4 ± 0.0 %ID/g
radioactivity in heart ([1]; 5 min after injection): 2.8 ± 0.3 %ID/g
radioactivity in kidney ([1]; 5 min after injection): 9.9 ± 0.4 %ID/g
radioactivity in large intestine (including contents) ([1]; 5 min after injection): 0.9 ± 0.1 %ID/g
radioactivity in liver ([1]; 5 min after injection): 17.2 ± 0.7 %ID/g
radioactivity in lung ([1]; 5 min after injection): 2.6 ± 0.2 %ID/g
radioactivity in muscle ([1]; 5 min after injection): 1.1 ± 0.1 %ID/g
radioactivity in pancreas ([1]; 5 min after injection): 2.7 ± 0.3 %ID/g
radioactivity in small intestine (including contents) ([1]; 5 min after injection): 3.3 ± 0.1 %ID/g
radioactivity in spleen ([1]; 5 min after injection): 1.6 ± 0.1 %ID/g
radioactivity in stomach (including contents) ([1]; 5 min after injection): 2.0 ± 0.1 %ID/g
radioactivity in testis ([1]; 5 min after injection): 0.3 ± 0.0 %ID/g
radioactivity in adrenals ([1]; 15 min after injection): 3.3 ± 0.5 %ID/g
radioactivity in blood ([1]; 15 min after injection): 1.1 ± 0.1 %ID/g
radioactivity in brain ([1]; 15 min after injection): 0.3 ± 0.0 %ID/g
radioactivity in heart ([1]; 15 min after injection): 2.1 ± 0.3 %ID/g
radioactivity in kidney ([1]; 15 min after injection): 7.7 ± 1.0 %ID/g
radioactivity in large intestine (including contents) ([1]; 15 min after injection): 1.4 ± 0.3 %ID/g
radioactivity in liver ([1]; 15 min after injection): 15.6 ± 0.8 %ID/g
radioactivity in lung ([1]; 15 min after injection): 2.1 ± 0.3 %ID/g
radioactivity in muscle ([1]; 15 min after injection): 0.8 ± 0.1 %ID/g
radioactivity in pancreas ([1]; 15 min after injection): 2.1 ± 0.3 %ID/g
radioactivity in small intestine (including contents) ([1]; 15 min after injection): 9.8 ± 3.1 %ID/g
radioactivity in spleen ([1]; 15 min after injection): 1.4 ± 0.2 %ID/g
radioactivity in stomach (including contents) ([1]; 15 min after injection): 4.0 ± 1.2 %ID/g
radioactivity in testis ([1]; 15 min after injection): 0.3 ± 0.0 %ID/g
radioactivity in adrenals ([1]; 30 min after injection): 2.1 ± 0.8 %ID/g
radioactivity in blood ([1]; 30 min after injection): 0.8 ± 0.1 %ID/g
radioactivity in brain ([1]; 30 min after injection): 0.2 ± 0.0 %ID/g
radioactivity in heart ([1]; 30 min after injection): 1.3 ± 0.1 %ID/g
radioactivity in kidney ([1]; 30 min after injection): 6.2 ± 0.6 %ID/g
radioactivity in large intestine (including contents) ([1]; 30 min after injection): 1.7 ± 0.4 %ID/g
radioactivity in liver ([1]; 30 min after injection): 10.7 ± 0.3 %ID/g
radioactivity in lung ([1]; 30 min after injection): 1.5 ± 0.2 %ID/g
radioactivity in muscle ([1]; 30 min after injection): 0.6 ± 0.1 %ID/g
radioactivity in pancreas ([1]; 30 min after injection): 1.4 ± 0.1 %ID/g
radioactivity in small intestine (including contents) ([1]; 30 min after injection): 16.7 ± 1.4 %ID/g
radioactivity in spleen ([1]; 30 min after injection): 0.9 ± 0.0 %ID/g
radioactivity in stomach (including contents) ([1]; 30 min after injection): 4.7 ± 1.0 %ID/g
radioactivity in testis ([1]; 30 min after injection): 0.3 ± 0.0 %ID/g
radioactivity in adrenals ([1]; 60 min after injection): 1.2 ± 0.1 %ID/g
radioactivity in blood ([1]; 60 min after injection): 0.5 ± 0.1 %ID/g
radioactivity in brain ([1]; 60 min after injection): 0.1 ± 0.0 %ID/g
radioactivity in heart ([1]; 60 min after injection): 0.7 ± 0.1 %ID/g
radioactivity in kidney ([1]; 60 min after injection): 3.2 ± 0.1 %ID/g
radioactivity in large intestine (including contents) ([1]; 60 min after injection): 2.6 ± 0.6 %ID/g
radioactivity in liver ([1]; 60 min after injection): 6.0 ± 0.2 %ID/g
radioactivity in lung ([1]; 60 min after injection): 0.8 ± 0.1 %ID/g
radioactivity in muscle ([1]; 60 min after injection): 0.3 ± 0.0 %ID/g
radioactivity in pancreas ([1]; 60 min after injection): 0.8 ± 0.1 %ID/g
radioactivity in small intestine (including contents) ([1]; 60 min after injection): 27.7 ± 3.0 %ID/g
radioactivity in spleen ([1]; 60 min after injection): 0.5 ± 0.1 %ID/g
radioactivity in stomach (including contents) ([1]; 60 min after injection): 7.2 ± 2.4 %ID/g
radioactivity in testis ([1]; 60 min after injection): 0.2 ± 0.0 %ID/g
logD [2]: 4
Structure (SMILES): Cc1ncc(-c2ccc3nc(N[11C](C)=O)sc3c2)cc1NC(=O)OC1CCCCC1 [[^11C]PK68, Cyclohexyl (5-(2-[^11C-carbonyl]acetamidobenzo[d]thiazol-6-yl)-2-methylpyridin-3-yl)carbamate]

From publication PMC8924334, “Synthesis of [^11C]carbonyl-labeled cyclohexyl (5-(2-acetamidobenzo[d]thiazol-6-yl)-2-methylpyridin-3-yl)carbamate ([^11C-carbonyl]PK68) as a potential PET tracer for receptor-interacting protein 1 kinase” (EJNMMI Radiopharmacy and Chemistry, 2022)
